We go through one compound from patent US10300140B2, “Sur-binding proteins against ERBB3” (I2 PHARMACEUTICALS, INC., priority 2012, dated 2019).

The assay concerns SKBR3 and BT474 cells. As to the kind of experiment: Enhancement of MK-2206 in SKBR3 and BT474 proliferation. Format: cell-based, human. The settings on record: 0.125 or 0.375 nM NRG; single agent. The method, then:
The ability of the SgGs to enhance AKT inhibition in unstimulated or NRG-stimulated SKBR3 cells was compared. An AKT inhibitor, MK-2206, was tested against the ErbB2 overexpressing cell lines SKBR3 (13I, 13J) and BT474 (13K, 13L). The indicated amounts of MK-2206 were applied to the cells and they were allowed to proliferate in complete medium containing 10% fetal bovine serum for 6 days (13I, 13K, 13L) or 3 days (13J). Cell content was measured using Cell Titer-Glo® (Promega).

As for `NC1(c2ccc(-c3nc4ccn5c(=O)[nH]nc5c4cc3-c3ccccc3)cc2)CCC1` [MK-2206], the “ability to inhibit cell proliferation when cells stimulated with NRG” value is listed as “dramatically reduced”.
